# Tested on: cGMP receptor protein
# Assay: Inducible GFP expression with cGMP added directly as inducing agent, without guanylyl cyclase
# Type: cell-based, Rhodospirillum centenum
# Conditions: cGMP 500 μM in 0.1% DMSO, 6 hours; pTrc99a-P-CRP + pPRO (0896-GFPuv)3
# Text: According to an inducible expression system, the target gene product is generally expressed in a large amount when there are internal/external inducing agents (chemicals, heat, oxygen, osmotic pressure, or the like) as a signal, and it is widely used in various fields. The most commonly used inducible system is a system in which IPTG is used as an inducing agent. However, being a chemically synthesized inducing agent, it is toxic to cells and, by producing an excess amount of proteins within a short time, a metabolic burden is stressful to the host, and thus it may work as a growth-inhibiting factor. […] To do so, guanylyl cyclase which converts GTP to cGMP molecule was removed, and cGMP was added as an inducing agent to a medium and the level of gene expression was determined. […]
# pTrc99a-Cyc-P-CRP plasmid was treated with restriction enzymes BamHI and HindIII to remove the polynucleotide encoding the guanylyl cyclase and according to treatment with a Klenow fragment, self-ligation was induced to complete pTrc99a-P-CRP construct. […] After inoculation to have 1% concentration of the original culture (15 ml), when the absorbance (OD600) of the culture reaches 0.5, cGMP dissolved in 0.1% DMSO was added to 500 μM and expression of the green fluorescent protein was induced for 6 hours. […]
smiles,measurement,value
"Nc1nc2c(ncn2[C@@H]2O[C@@H]3COP(=O)(O)O[C@H]3[C@H]2O)c(=O)[nH]1 [cGMP, cyclic guanosine monophosphate]",expression of the green fluorescent protein induced by cGMP,there was indeed expression of the green fluorescent protein
